Key:
[1] = tested on: infant hyperbilirubinemia; assay: Low-dose administration of stannsoporfin in infants with hyperbilirubinemia (all receiving phototherapy): serum bilirubin and need for exchange transfusion; format: in vivo, human; settings: for # transfused pts (babies total received exchange transfusions): intramuscular, before or after treatment
Protocol: (§1) Low-dose administration of stannsoporfin was tested in a group of infants in Hanoi, Vietnam and Michigan, United States. The known and unknown risks of the proposed study intervention and the potential for direct and indirect benefit were discussed with each subject's parents or guardians. Written informed consent was obtained from a parent or guardian of each subject before enrollment in the study. The study protocol was conducted under the guidelines of current Good Clinical Practice as promulgated by the United States Food and Drug Administration and international regulatory bodies. The study was reviewed and approved by the Institutional Review Board of the William Beaumont Hospital, Royal Oak, Mich., and the Vietnamese Ministry of Health and the Ethics Review Board of the National Hospital for Pediatrics of Hanoi.
All infants received phototherapy to treat hyperbilirubinemia; thus, the group designated as “placebo” were treated with phototherapy, as were the other groups. The placebo group had 18 babies total. […] The 0.75 mg/kg stannsoporfin group had 19 babies total. […] The 1.5 mg/kg stannsoporfin group had 18 babies total. […] Treatment refers to either placebo injection or stannsoporfin injection; as previously indicated, all babies received phototherapy. The placebo used was normal physiological saline. Stannsoporfin was administered via intramuscular injection in sodium phosphate buffer at a concentration of 20 mg/ml. A vial containing 1.5 ml was used, where a dose based on birthweight of the infant and whether a 0.75 mg/kg or 1.5 mg/kg dose was withdrawn. (For example, a 5 kg birthweight baby treated at a dose of 1.5 mg/kg would receive 7.5 mg of stannsoporfin; thus, a volume of 0.375 ml from the 20 mg/ml solution would be used to provide this dose.) In the majority of cases, the infants were between 4 and 7 days of age at the time of either stannsoporfin administration or exchange transfusion. The results are shown in FIG. 1 and FIG. 2; infants receiving stannsoporfin injections who required exchange transfusions before or after treatment are not included in the data presented in FIG. 1 for any group, while babies in the stannsoporfin groups who required exchange transfusion are excluded from FIG. 2 and only babies in the placebo group that did receive exchange transfusion are included in FIG. 2.

[2] = Side effects / adverse events in the low-dose stannsoporfin infant study; format: in vivo, human
Protocol: as §1
All infants received phototherapy to treat hyperbilirubinemia; thus, the group designated as “placebo” were treated with phototherapy, as were the other groups. The placebo group had 18 babies total. […] The 0.75 mg/kg stannsoporfin group had 19 babies total. […] The 1.5 mg/kg stannsoporfin group had 18 babies total. […] Treatment refers to either placebo injection or stannsoporfin injection; as previously indicated, all babies received phototherapy. The placebo used was normal physiological saline. Stannsoporfin was administered via intramuscular injection in sodium phosphate buffer at a concentration of 20 mg/ml. A vial containing 1.5 ml was used, where a dose based on birthweight of the infant and whether a 0.75 mg/kg or 1.5 mg/kg dose was withdrawn. (For example, a 5 kg birthweight baby treated at a dose of 1.5 mg/kg would receive 7.5 mg of stannsoporfin; thus, a volume of 0.375 ml from the 20 mg/ml solution would be used to provide this dose.) In the majority of cases, the infants were between 4 and 7 days of age at the time of either stannsoporfin administration or exchange transfusion. […]

jaundiced infants = settings: single dose of 6 umol/kg birthweight (4.5 mg/kg birthweight); cited from earlier work
[3] = 0.75 mg/kg group, 19 babies total
[4] = 1.5 mg/kg group, 18 babies total

## tin (IV) mesoporphyrin IX dichloride [stannsoporfin]
[1]; 0.75 mg/kg birthweight, N = 19, plus phototherapy
  # transfused pts (babies total received exchange transfusions): 3
[1]; [3]
  babies who did not receive an exchange transfusion: 16
  babies who received an exchange transfusion after treatment: 1
[1]; 0.75 mg/kg, N = 19
  % requiring transfusions: 16%
[1]; 1.5 mg/kg birthweight, N = 18, plus phototherapy
  # transfused pts (babies total received exchange transfusions): 2
[1]; [4]
  babies who did not receive exchange transfusion: 16
  babies who received an exchange transfusion after treatment: 2
[1]; 1.5 mg/kg, N = 18
  % requiring transfusions: 11%
[1]; 1.5 mg/kg, at 24 hours, FIG. 1
  significance value P versus placebo, serum bilirubin: < 0.05
[1]; 1.5 mg/kg, at 48 hours, FIG. 1
  significance value P versus placebo, serum bilirubin: < 0.001
[1]; 1.5 mg/kg, FIG. 2
  decrease in serum bilirubin compared with the exchange transfusion (placebo injection) group: greater than that for the exchange transfusion group at 3 of the 4 post-treatment data points
[1]; both doses, 0.75 mg/kg and 1.5 mg/kg, babies who required exchange transfusions excluded, FIG. 1
  reduction of serum bilirubin versus placebo (phototherapy only): greater reduction of serum bilirubin than the placebo group
[1]; both stannsoporfin groups, 0.75 mg/kg and 1.5 mg/kg, babies without exchange transfusion, FIG. 2
  percentage reduction in starting bilirubin levels: substantial decrease in serum bilirubin
[1]; low-dose stannsoporfin (0.75 and 1.5 mg/kg) versus control
  need for exchange transfusion: significantly decreased the need for exchange transfusion
[2]; all treatment groups
  adverse events considered probably or definitely related to the study treatment: None
[2]; each treatment group
  infants who experienced at least one adverse event: Greater than 60%
[2]; placebo, 0.75 mg/kg and 1.5 mg/kg groups
  incidence, severity, seriousness, and causality of adverse events, differences among the three treatment groups: no statistically significant differences
Jaundiced infants
  need for phototherapy in jaundiced infants: could avoid the need for phototherapy

From patent publication US20080113955A1, “TREATMENT OF INFANT HYPERBIL[…] LOW DOSAGES OF STANNSOPORFIN” (priority 2006, published 2008)
